Measurements taken from patent US9090593B2, “Bicyclic compounds as Pim inhibitors” (AMGEN INC., priority 2010, dated 2015).

What was measured:
[1] = target: T1, full length recombinant Pim-1 protein (Homo sapiens, UniProt P11309); assay: Pim-1 enzyme assay (HTRF, phosphorylation of biotinylated-BAD (S112) peptide); format: biochemical; conditions: enzyme assay, Pim-1; read-out: Pim_1_IC50
T1 construct: by full length recombinant Pim-1, Pim-2, or Pim-3 protein; hexahistidine tag followed by a thrombin cleavage site (N); made in house; host or cells: Sf9 (baculovirus) or E. coli (pET28)
Method in brief: (§1)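 Recombinant full-length Pim-1 or Pim-2 was incubated with biotinylated BAD (S112) peptide in pH 7.0 Hepes buffer with BSA and DTT. After an EDTA stop, phosphopeptide was quantified by time-resolved FRET between a europium antibody and streptavidin-APC, and IC50 values came from 4-parameter logistic curves.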

[2] = target: T2, full length recombinant Pim-2 protein (Homo sapiens, UniProt Q9P1W9); assay: Pim-2 enzyme assay (HTRF, phosphorylation of biotinylated-BAD (S112) peptide); format: biochemical; conditions: enzyme assay, Pim-2; read-out: Pim2_IC50
T2 construct: by full length recombinant Pim-1, Pim-2, or Pim-3 protein; hexahistidine tag followed by a thrombin cleavage site (N); made in house; host or cells: Sf9 (baculovirus) or E. coli (pET28)
Method in brief: as §1

[3] = target: T3, full length recombinant Pim-3 protein (Homo sapiens, UniProt Q86V86); assay: Pim-3 enzyme assay (HTRF, phosphorylation of biotinylated-BAD (S112) peptide); format: biochemical; conditions: read-out: Pim3 IC50
T3 construct: by full length recombinant Pim-1, Pim-2, or Pim-3 protein; purchased Millipore (UK)
Method in brief: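 HTRF read-out, streptavidin-APC plus Eu-labelled anti-phospho-BAD (S112) antibody, measures BAD peptide phosphorylation by full-length recombinant Pim-3. Buffer: 60 mM Hepes pH 7.0, 2 mM DTT, 0.05% BSA; EDTA (3 mM) stop. Percent of control per well, IC50 by 4-parameter logistic fit.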

[4] = target: T4, Pim-1 stably transfected into the U2OS human osteogenic sarcoma line (Homo sapiens, UniProt P11309); assay: Pim cell assay, phospho-BAD normalized against total BAD, U2OS stably transfected with Pim-1; format: cell-based; conditions: U2OS cells stably transfected with Pim-1, phospho-BAD; high dose […]; read-out: Pim1_Cell_IC50
T4 construct: expressed in transfected cells; host or cells: U2OS human osteogenic sarcoma line
Method in brief: (§2)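 Read-out is phospho-BAD relative to total BAD, by MSD electrochemiluminescence on lysates, expressed as % phosphoprotein = (2×phospho)/(phospho+total)×100. Engineered U2OS lines carrying stably transfected Pim-1 or Pim-2 received 10-point compound dilutions at 0.3% final DMSO after overnight culture at 37 °C; DMSO-only wells served as high control.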

[5] = target: T5, Pim-2 stably transfected into the U2OS human osteogenic sarcoma line (Homo sapiens, UniProt Q9P1W9); assay: Pim cell assay, phospho-BAD normalized against total BAD, U2OS stably transfected with Pim-2; format: cell-based; conditions: U2OS cells stably transfected with Pim-2, phospho-BAD; high dose […]; read-out: Pim2_Cell_IC50; note: high dose 31.6 µM
T5 construct: expressed in transfected cells; host or cells: U2OS human osteogenic sarcoma line
Method in brief: as §2

T1 sequence (P11309 whole entry): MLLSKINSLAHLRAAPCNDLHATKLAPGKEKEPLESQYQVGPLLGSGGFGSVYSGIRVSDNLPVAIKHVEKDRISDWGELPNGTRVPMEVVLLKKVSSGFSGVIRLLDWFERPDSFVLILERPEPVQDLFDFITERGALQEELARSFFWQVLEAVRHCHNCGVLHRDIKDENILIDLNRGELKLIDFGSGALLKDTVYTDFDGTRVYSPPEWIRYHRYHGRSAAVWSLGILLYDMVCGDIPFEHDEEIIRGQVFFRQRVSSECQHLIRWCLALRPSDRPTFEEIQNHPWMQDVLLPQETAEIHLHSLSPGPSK
T4 sequence (P11309 whole entry): as above
T2 sequence (Q9P1W9 whole entry): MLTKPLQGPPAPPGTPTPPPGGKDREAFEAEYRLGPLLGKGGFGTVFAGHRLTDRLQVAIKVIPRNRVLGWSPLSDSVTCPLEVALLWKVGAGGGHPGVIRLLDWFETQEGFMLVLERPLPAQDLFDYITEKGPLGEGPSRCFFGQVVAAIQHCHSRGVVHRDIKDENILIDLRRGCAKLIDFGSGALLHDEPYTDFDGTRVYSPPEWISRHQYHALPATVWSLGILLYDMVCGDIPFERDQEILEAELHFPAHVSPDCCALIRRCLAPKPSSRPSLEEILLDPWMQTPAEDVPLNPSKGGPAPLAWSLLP
T5 sequence (Q9P1W9 whole entry): as above

Structure (SMILES) | IC50 [1] [nM] | IC50 [2] [nM] | IC50 [3] [nM] | IC50 [4] [nM] | IC50 [5] [nM]
CN1CCOc2cc(-c3ccc4[nH]nc(-c5cncc(N6CCC(N)CC6)n5)c4c3)cnc21 [Example 58, 1-(6-(5-(4-methyl-3,4-dihydro-2H-pyrido[3,2-b][1,4]oxazin-7-yl)-1H-indazol-3-yl)-2-pyrazinyl)-4-piperidinamine] | 2 | 11 | 1 | 164 | 6760
CS(=O)(=O)c1ccc(-c2ccc3[nH]nc(-c4cncc(N5CCC(N)CC5)n4)c3c2)cc1 [Example 59, 1-(6-(5-(4-(methylsulfonyl)phenyl)-1H-indazol-3-yl)-2-pyrazinyl)-4-piperidinamine] | 3 | 28 | 11 | 2160 | > 31600
N#Cc1ccccc1-c1ccc2[nH]nc(-c3cncc(N4CCC(N)CC4)n3)c2c1 [Example 60, 2-(3-(6-(4-amino-1-piperidinyl)-2-pyrazinyl)-1H-indazol-5-yl)benzonitrile] | 5 | 36 | 4 | 419 | 12800
COc1ccc(F)c(-c2ccc3[nH]nc(-c4cncc(N5CCC(N)CC5)n4)c3c2)c1 [Example 61, 1-(6-(5-(2-fluoro-5-methoxyphenyl)-1H-indazol-3-yl)-2-pyrazinyl)-4-piperidinamine] | 10 | 65 | 6 | 3010 | > 31600
COc1cccc(-c2ccc3[nH]nc(-c4cncc(N5CCC(N)CC5)n4)c3c2)n1 [Example 63, 1-(6-(5-(6-methoxy-2-pyridinyl)-1H-indazol-3-yl)-2-pyrazinyl)-4-piperidinamine] | 11 | 161 | 8 | 1690 | > 31600
CC(C)Oc1cccc(-c2ccc3[nH]nc(-c4cncc(N5CCC(N)CC5)n4)c3c2)n1 [Example 64, 1-(6-(5-(6-(1-methylethoxy)-2-pyridinyl)-1H-indazol-3-yl)-2-pyrazinyl)-4-piperidinamine] | 20 | 150 | 16 | 3020 | > 31600

The remaining lines, values ahead:

IC50 [1] [nM] | IC50 [2] [nM] | IC50 [3] [nM] | IC50 [4] [nM] | IC50 [5] [nM] | Structure (SMILES)
4 | 24 | 1 | 237 | 9500 | NC1CCN(c2cncc(-c3n[nH]c4ccc(-c5ccc6ncsc6c5)cc34)n2)CC1 [Example 52, 1-(6-(5-(1,3-benzothiazol-6-yl)-1H-indazol-3-yl)-2-pyrazinyl)-4-piperidinamine]
2 | 17 | 1 | 280 | 9930 | NC1CCN(c2cncc(-c3n[nH]c4ccc(-c5ccc6scnc6c5)cc34)n2)CC1 [Example 53, 1-(6-(5-(1,3-benzothiazol-5-yl)-1H-indazol-3-yl)-2-pyrazinyl)-4-piperidinamine]
1 | 51 | 1 | 287 | > 31600 | NC1CCN(c2cncc(-c3n[nH]c4ccc(-c5cnc6ccccc6c5)cc34)n2)CC1 [Example 55, 1-(6-(5-(3-quinolinyl)-1H-indazol-3-yl)-2-pyrazinyl)-4-piperidinamine]
2 | 15 | 1 | 130 | > 31600 | NC1CCN(c2cncc(-c3n[nH]c4ccc(-c5ccc6nccnc6c5)cc34)n2)CC1 [Example 56, 1-(6-(5-(6-quinoxalinyl)-1H-indazol-3-yl)-2-pyrazinyl)-4-piperidinamine]
11 | 59 | 7 | 599 | > 31600 | N#Cc1cccc(-c2ccc3[nH]nc(-c4cncc(N5CCC(N)CC5)n4)c3c2)c1 [Example 62, 3-(3-(6-(4-amino-1-piperidinyl)-2-pyrazinyl)-1H-indazol-5-yl)benzonitrile]
